# Results as given in patent publication US20250074910A1, “MENIN INHIBITOR AND USE THEREOF” (HITGEN INC., priority 2021, published 2025).
# Assays:
# [1] = molecular target: Menin/MLL-4-43 peptide interaction (Homo sapiens (Human), UniProt O00255); experiment: Menin-MLL interaction inhibitory activity assay (fluorescence polarization competition); type: binding; conditions: FITC-MLL4-43-peptide, Menin recombinant protein
# Method: Test Example 1: Menin-MLL Interaction Inhibitory Activity Assay
# The inhibition of Menin/MLL-4-43 peptide interaction by small molecule inhibitors was quantitatively detected by fluorescence polarization competition assay. The experiment was performed in a 384-well plate (Corning, Cat #3575) using a reaction buffer consisting of 50 mM Tris, pH 7.5, 50 mM NaCl, and 1 mM DTT. A 40 μL reaction system included 10 μL of 8 nM Menin recombinant protein and 10 μL of the test compound at different concentrations. The compound was pre-incubated with Menin protein for 15 min, and then 20 μL of 10 nM FITC-MLL4-43-peptide was added. After incubation on a shaker at 25° C. for 60 min, the fluorescence polarization signal (FP 485 520 520) was read using BMG PHERAStar detection. The experimental data was analyzed and processed by GraphPad Prism 6 software to obtain the IC50 value. The control compound 1 was prepared by referring to the method of Example 64 in WO2017214367.
# [2] = test system: MV4-11; experiment: Cell proliferation inhibition (CellTiter-Glo), MV4-11; type: cell-based; conditions: MV4-11 cells
# Method: (§1) Test Example 2: Test of the Inhibitory Ability of Menin-MLL Interaction Inhibitors on Cell Proliferation
# (§2) The inhibitory ability of the compounds of the present disclosure on the proliferation of tumor cell lines (including cell lines containing MLL fusion protein such as MV4-11, MOLM-13, THP-1 and NOMO-1, control cell lines without MLL fusion protein such as HL-60, K562 and MOLM-16, and cell lines containing NPM1 mutation such as OCI-AML3) was evaluated by using the cell viability analysis method. The cells were plated in 96-well plates at a certain concentration (e.g., 5,000-20,000 cells/well), and then an equal volume of culture medium containing 2 times the final concentration of the test compound (the final concentration ranging 10 from 1 nM to 10 μM) was added. The plates were placed in an incubator and cultured at 37° C. and 5% CO2 for 72-168 h. Before the test, an equal volume of CellTiter-Glo® Luminescent reagent was added, and the plate was incubated at room temperature for 10 min before detection using an ELISA reader (BMG LABTECH). The data were analyzed using GraphPad Prism software to obtain the IC50 value and compound fitting curve. The control compound 1 was prepared by referring to the method of Example 64 in WO2017214367.
# [3] = test system: MOLM-13; experiment: Cell proliferation inhibition (CellTiter-Glo), MOLM-13; type: cell-based; conditions: Homo sapiens, MOLM-13, 168 h, MOLM-13 cells
# Method: as §1, §2
# [4] = test system: OCI-AML3; experiment: Cell proliferation inhibition (CellTiter-Glo), OCI-AML3 (NPM1 mutation); type: cell-based; conditions: Homo sapiens, OCI-AML-3, 168 h, OCI-AML3 cells
# Method: as §1, §2
# [5] = Pharmacokinetics test in mouse; type: in vivo, ICR mice; conditions: mice, p.o. 10 mg/kg; for AUC(0-t) / half-life / Cmax: male, ICR, mouse, plasma, po, 10 mg/kg; for Cmax: read-out: Cmax; for F, %: 1 mg/kg for intravenous injection
# From the text: Test Example 4. In Vivo Pharmacokinetic Study
# Test purpose: To determine the pharmacokinetic properties of some of the example compounds of the present disclosure in mice, rats and dogs after single intravenous injection (i.v.) and oral gavage (i.g.) administration by LC-MS/MS method.
# Research methods: An appropriate amount of compound was weighed and prepared into a transparent clear solution of a certain concentration using 0.9% sodium chloride injection and 1.5 equivalents of 1M HCl aqueous solution based on the molar number of the compound. After SPF male ICR mice, SPF male SD rats, and male beagle dogs were fasted overnight, the test compound solution was given by intravenous injection and oral gavage at the corresponding dose. Anticoagulated whole blood of the test animals was collected at 5 min, 15 min, 30 min, 1 h, 2 h, 4 h, 8 h, and 24 h after administration, and plasma was separated. Plasma samples at each time point were detected by LC-MS/MS, and the plasma concentration of the compound was determined by the standard curve correction method. Phoenix WinNonlin 5.2 non-compartmental model was used to calculate the pharmacokinetic parameters of terminal elimination half-life (t½), blood peak concentration (Cmax), area under the concentration-time curve (AUC), clearance (CL), and bioavailability (F %), which was directly obtained from the serum concentration results. Blood drug concentration and pharmacokinetic parameters are expressed as mean±standard deviation (X±SD). The specific test protocols for each species are as follows.
# Pharmacokinetics Test in Mouse
# Test animals: SPF male ICR mice, weighing 25-30 g, 12 mice/compound, purchased from Chengdu Dossy Experimental Animal Co., Ltd.
# Test design: On the day of the test, ICR mice were randomly divided into groups according to body weight, fasted but with free water for 12-14 h one day before administration, and fed 2 h after administration.
# Preparation of test compound solution: The concentration of the test compound for oral gavage was 1 mg/mL. An appropriate amount of compound was weighed and prepared into a 1 mg/mL transparent clear solution using 0.9% sodium chloride injection and 1.5 equivalents of 1M HCl aqueous solution. The concentration of the test compound for intravenous injection was 0.2 mg/mL. The 1 mg/mL transparent clear solution was diluted to a concentration of 0.2 mg/mL using 0.9% sodium chloride injection. The volume of 1 M HCl solution added was calculated as: volume of 1 M HCl solution added […]=weighed amount of compound (mg)/molecular weight×1.5×1000. The amount added during preparation must not exceed the calculated value.
# The test substance was administered as follows: intravenous injection: 1 mg/kg of dose, 5 mL/kg of volume, 6 mice; oral gavage: 10 mg/kg of dose, 10 mL/kg of volume, 6 mice.
# Sample collection: Blood (40-50 μl) was collected in anticoagulant tubes sprayed with EDTA-K2 through the orbital venous plexus at 5 min, 15 min, 30 min, 1 h, 2 h, 4 h, 8 h, and 24 h after administration, and centrifuged at 10,000 rpm for 20 min within 1 h (the blood was saved on wet ice before and after centrifugation). The supernatant, which was plasma, was collected and frozen in a refrigerator at −20° C. or below for LC-MS/MS analysis of Full PK of male ICR mice (2 mice per group, 4 blood collection time points per mouse, crossover).
# [6] = Stability in mouse liver microsomes; type: in vitro ADME; conditions: 1.00 μM compound, NADPH; for half-life at 1 μM: liver microsomes, pH 7.4, 0.5 mg/mL microsomal protein, read-out: Half life T1/2, mouse liver microsomes
# Method: (§3) Test Example 3: Test of Stability of Compounds in Liver Microsome
# (§4) Test purpose: To determine the stability of some of the compounds of the present disclosure in mouse, dog and human liver microsomes by LC-MS/MS method.
# (§5) Test materials: The test drugs were in-house prepared example compounds of the present disclosure; the positive reference compound SNDX-5613 was prepared by the method of Example 253 in patent WO2017214367; the control compound 1 was prepared by the method of Example 64 in WO2017214367; liver microsomes were purchased from CORNING.
# (§6) The total volume of each incubation system was approximately 45 μL, and the medium was 100 mM phosphate buffer (PBS, pH 7.4), including liver microsomal protein at a final concentration of 0.5 mg/mL, 1.00 μM compound and 2.00 mM NADPH, and the organic phase content was <1%. Incubation was performed in a 37° C. incubator, and 135 μL of ice-cold acetonitrile was added after 0, 5, 15, 30 and 60 min of reaction to terminate the reaction. The positive control group was incubated with 1.00 μM Ketanserin, 0.5 mg/mL liver microsomal protein and 2.00 mM NADPH in a 37° C. incubator for 0, 5, 15, 30 and 60 min respectively, and then 135 μL of ice-cold acetonitrile was added to terminate the reaction. The 96-well plates were shaken at 600 rpm for 10 min and then centrifuged at 4700 rpm at 4° C. for 15 min. 80 μL of supernatant was mixed with 320 μL of pure water, and the remaining amount of the compound was detected by LC-MS/MS method. The in vitro half life (T½) and intrinsic clearance (CLint) were calculated according to the following formula:
# (§7) Intrinsic clearance (Clint)=(0.693/T1/2)×(1/liver microsome concentration)×conversion factor. k is the linear regression slope of the remaining percentage of the ln compound-incubation time.
# [7] = Stability in human liver microsomes; type: in vitro ADME; conditions: 0.5 mg/mL microsomal protein, 1.00 μM compound, NADPH; for half-life at 1 μM: human, liver microsomes, pH 7.4, Human, read-out: Half life T1/2, human liver microsomes
# Method: as §3, §4, §5, §6, §7
# [8] = Stability in dog liver microsomes; type: in vitro ADME; conditions: dog, liver microsomes, pH 7.4, Dog; 0.5 mg/mL microsomal protein, 1.00 μM compound, NADPH; read-out: Half life T1/2, dog liver microsomes
# Method: as §3, §4, §5, §6, §7
# Chain of Menin/MLL-4-43 peptide interaction (O00255 whole entry, species assumed): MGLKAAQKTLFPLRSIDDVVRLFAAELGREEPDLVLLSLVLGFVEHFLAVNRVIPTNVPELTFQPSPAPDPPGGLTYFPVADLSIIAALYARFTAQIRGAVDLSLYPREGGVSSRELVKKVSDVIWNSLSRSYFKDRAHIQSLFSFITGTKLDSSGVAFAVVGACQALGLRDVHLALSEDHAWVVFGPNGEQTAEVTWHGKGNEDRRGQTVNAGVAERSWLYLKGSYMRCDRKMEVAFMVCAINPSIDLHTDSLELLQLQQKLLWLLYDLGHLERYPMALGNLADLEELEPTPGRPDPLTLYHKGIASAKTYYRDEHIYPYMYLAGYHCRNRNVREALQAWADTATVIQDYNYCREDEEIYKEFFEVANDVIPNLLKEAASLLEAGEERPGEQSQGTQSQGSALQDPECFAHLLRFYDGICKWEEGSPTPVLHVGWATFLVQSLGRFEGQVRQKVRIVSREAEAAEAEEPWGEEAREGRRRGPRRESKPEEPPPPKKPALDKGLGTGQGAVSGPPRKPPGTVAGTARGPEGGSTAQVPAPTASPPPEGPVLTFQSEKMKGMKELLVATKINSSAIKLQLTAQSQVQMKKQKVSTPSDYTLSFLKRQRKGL
IC50 [1] [nM],GI50 ([2]; 72 h) [nM],GI50 [3] [nM],GI50 [4] [nM],AUC(0-t) [5] [ng·h/mL],half-life [5] [min],Cmax [5] [ng/mL],"F, % [5] [%]","GI50 ([2]; Homo sapiens, MV4-11, 72 h) [nM]",half-life at 1 μM [6] [min],half-life at 1 μM [7] [min],half-life at 1 μM [8] [min],"Half life T1/2, mouse liver microsomes ([6]; 0.5 mg/mL microsomal protein) [min]","Half life T1/2, human liver microsomes ([7]; Human) [min]",Structure (SMILES)
33.4,55.2,63.3,31.2,7770,230,2010,72,,,,,,,"CC(C)N(C(=O)c1cc(F)ccc1Oc1cncnc1N1CC2(CCN(CC3CC4CCC3CC43CCC(=O)N3)CC2)C1)C(C)C (single isomer, unassigned) [Example 13-1b]"
49.2,,,,,,,,86.1,> 120,57.3,,,,"CCN(C(=O)c1cc(F)ccc1Oc1nncnc1N1CC2(CCN(CC3CC4CCC3CC43CCC(=O)N3)CC2)C1)C(C)C (single isomer, unassigned) [Example 14-1a]"
15.3,,216,111,,,,,45.4,> 120,45.4,79.9,,,"[2H]C([2H])([2H])C1C[C@]2(CC[C@@H](CN3CCC4(CC3)CN(c3ncnnc3Oc3ccc(F)cc3C(=O)N(CC)C(C)C)C4)CC2)NC1=O (single isomer, unassigned) [Example 42-1]"
12.4,27.8,133,92,,,,,,70,34.9,35.4,,,"[2H]C([2H])([2H])C1C[C@]2(CC[C@@H](CN3CCC4(CC3)CN(c3ncnnc3Oc3ccc(F)cc3C(=O)N(C(C)C)C(C)C)C4)CC2)NC1=O (single isomer, unassigned) [Example 43-1]"
35.3,,329,140,,,,,100,> 120,78.5,> 120,,,"CCN(C(=O)c1cc(F)ccc1Oc1nncnc1N1CC2(CCN(CC3CCC4(CC3)CN(C)C(=O)N4)CC2)C1)C(C)C (single isomer, unassigned) [Example 46-1]"
20.2,,,,,,,,118,> 120,46.8,77,,,"CC(C)N(C(=O)c1cc(F)ccc1Oc1nncnc1N1CC2(CCN(CC3CCC4(CC3)CN(C)C(=O)N4)CC2)C1)C(C)C (single isomer, unassigned) [Example 47-1]"
156,82.7,,,,,,,,,,,3.75,4.77,"CC(C)c1ncncc1-c1cc(F)ccc1Oc1cncnc1N1CC2(CN(CC3CCC4(CC3)OCCO4)C2)C1 [Control compound 1, reference compound]"
,,580,277,5290,90.6,2480,79,76.2,,,,,,CCN(C(=O)c1cc(F)ccc1Oc1cncnc1N1CC2(CCN(C[C@H]3CC[C@@]4(CCC(=O)N4)CC3)CC2)C1)C(C)C [Example 1]
6.3,,12.8,21.2,4040,80.4,1960,75,12.2,,,,,,COCC1(COC)C[C@]2(CC[C@@H](CN3CCC4(CC3)CN(c3ncncc3Oc3ccc(F)cc3C(=O)N(C(C)C)C(C)C)C4)CC2)NC1=O [Example 18]
12,,157,77.9,2650,151,1510,119,20,48.5,36.3,,,,CC(C)N(C(=O)c1cc(F)ccc1Oc1cncnc1N1CC2(CCN(C[C@H]3CC[C@]4(CC3)CC(C)(C)C(=O)N4)CC2)C1)C1CC1 [Example 23]
42,,110,108,2320,66,1350,77,51.3,,,,,,CC(C)N(C(=O)c1cc(F)ccc1Oc1nncnc1N1CC2(CCN(CC3CCC4(CC3)COC(=O)N4)CC2)C1)C(C)C (stereo not drawn) [Example 49]
